pIC50: −log10 of the molar value. Where a name gives a salt, the structure may show the parent alone. Read-outs that look alike come from different tables or passages of the source.
How the values were obtained:
[1] = test system: HAP1 MTAP-deleted cell line; experiment: SDMA in-cell western assay, HAP1 MTAP-deleted; assay type: cell-based; details: for pIC50: Homo sapiens; for MTAP intact/deleted ratio: IC50 ratio HAP1 MTAP-intact / HAP1 MTAP-deleted, SDMA in-cell western
Source text: (§1) Table 1 also indicates IC50 values in an MTAP-isogenic cell line pair for exemplary compounds in an SDMA in-cell western assay (columns 7-8). HAP1 MTAP-intact is a cell line in which endogenous levels of MTAP are expressed, and HAP1 MTAP-deleted is an MTAP-null cell line.

[2] = test system: HAP1 MTAP-deleted cell line; experiment: Viability assay, MTAP-deleted cell line; assay type: cell-based; details: Homo sapiens
Source text: Table 1 additionally indicates IC50 values in a viability assay for the MTAP-deleted cell line (column 10), indicating the effect of treatment with compound on cell survival.

[3] = test system: HAP1 MTAP-intact cell line; experiment: SDMA in-cell western assay, HAP1 MTAP-intact; assay type: cell-based; details: Homo sapiens
Source text: as §1

[4] = molecular target: T1, PRMT5 (Homo sapiens, UniProt O14744); experiment: PRMT5 biochemical IC50 assay with no cofactor; details: PRMT5, no cofactor
T1 construct: purchased Viva (custom protein)
T1 sequence (O14744 whole entry): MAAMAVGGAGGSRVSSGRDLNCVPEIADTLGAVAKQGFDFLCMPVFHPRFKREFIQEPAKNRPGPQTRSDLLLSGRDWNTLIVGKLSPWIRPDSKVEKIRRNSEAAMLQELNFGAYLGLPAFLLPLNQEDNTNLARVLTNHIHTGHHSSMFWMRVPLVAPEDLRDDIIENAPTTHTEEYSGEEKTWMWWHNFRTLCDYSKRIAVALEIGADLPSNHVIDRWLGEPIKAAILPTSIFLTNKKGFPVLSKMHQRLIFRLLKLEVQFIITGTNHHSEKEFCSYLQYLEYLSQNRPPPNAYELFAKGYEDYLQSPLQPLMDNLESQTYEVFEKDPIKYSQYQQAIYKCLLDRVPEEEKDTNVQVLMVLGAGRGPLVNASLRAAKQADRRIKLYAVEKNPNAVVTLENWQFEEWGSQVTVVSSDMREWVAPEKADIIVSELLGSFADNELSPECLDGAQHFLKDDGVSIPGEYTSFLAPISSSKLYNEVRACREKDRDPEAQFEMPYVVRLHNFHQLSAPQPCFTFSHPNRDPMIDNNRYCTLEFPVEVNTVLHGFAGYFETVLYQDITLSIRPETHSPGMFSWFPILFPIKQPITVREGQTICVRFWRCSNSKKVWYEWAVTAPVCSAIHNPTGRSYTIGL
T1 sequence (Q9BQA1 whole entry partner): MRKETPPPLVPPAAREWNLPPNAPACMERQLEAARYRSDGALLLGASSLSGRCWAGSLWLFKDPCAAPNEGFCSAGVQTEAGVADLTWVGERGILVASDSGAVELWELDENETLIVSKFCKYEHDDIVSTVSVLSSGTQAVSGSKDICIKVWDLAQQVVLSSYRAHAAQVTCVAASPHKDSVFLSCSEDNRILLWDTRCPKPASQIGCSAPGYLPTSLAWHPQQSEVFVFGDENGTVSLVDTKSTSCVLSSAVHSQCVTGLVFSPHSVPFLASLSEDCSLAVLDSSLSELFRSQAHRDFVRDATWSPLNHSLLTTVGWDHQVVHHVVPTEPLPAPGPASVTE
Source text: Table 1 indicates IC50 values (μM) against PRMT5 for exemplary compounds in the presence of SAM as cofactor, with no cofactor, and with MTA as cofactor, respectively (columns 4-6). […] Ki values can be calculated from the IC50 values as described in the Examples section. As detailed in the Examples section, for the assay performed in the presence of SAM, IC50=Ki×1.5 (Ki=IC50/1.5).

[5] = molecular target: T1, PRMT5; experiment: PRMT5 biochemical IC50 assay with MTA as cofactor; details: PRMT5, MTA as cofactor; read-out: MTA IC50
[6] = molecular target: T1, PRMT5; experiment: PRMT5 biochemical IC50 assay with SAM as cofactor; details: PRMT5, SAM as cofactor; read-out: SAM IC50
[7] = HAP1, read-out: HAP1 MTAP deleted IC50
[8] = HAP1, read-out: HAP1 MTAP deleted viability
[9] = HAP1, read-out: MTAP HAP1 intact IC50
[10] = HAP1, SDMA in-cell western, HAP1 MTAP-deleted, read-out: HAP 1 MTAP deleted IC50
[11] = HAP1, viability IC50, MTAP-deleted cell line, read-out: HAP1 MTAP deleted viability
[12] = HAP1, SDMA in-cell western, HAP1 MTAP-intact, read-out: MTAP HAP1 intact IC50
[13] = HAP1, viability assay, MTAP-deleted cell line, read-out: HAP1 MTAP deleted viability
[14] = read-out: No Cofactor/ rel IC50
[15] = HAP1, viability assay, HAP1 MTAP-deleted, read-out: HAP1 MTAP deleted viability

Row | Structure (SMILES) | pIC50 [1, 7] | pIC50 [2, 8] | pIC50 [3, 9] | pIC50 ([4]; read-out: No Cofactor/rel IC50) | pIC50 [5] | pIC50 [6] | pIC50 [2, 13] | further results
1 | C[C@H]1CC[C@H](c2ccc3sc(C4CCN(C)CC4)nc3c2)N(C(=O)C(=O)Nc2cnc(N)c(C3CC3)c2)C1 (single isomer, unassigned) [Compound 1222] | > 7.00 | > 6.00 | > 7.00 | – | – | – | – | –
2 | Cc1cc(NC(=O)C(=O)N2CCCCC2c2ccccc2)cnc1C (stereo not shown) [Compound 139, N-(5,6-dimethylpyridin-3-yl)-2-oxo-2-(2-phenylpiperidin-1-yl)acetamide] | < 6.00 | < 5.00 | < 6.00 | – | – | – | – | –
3 | C[C@H]1CC[C@H](c2ccc3c(c2)CCC(=O)N3)N(C(=O)C(=O)Nc2cncc(C(N)=O)c2)C1 (single isomer, unassigned) [Compound 479] | > 7.00 | 5.00 to 6.00 | < 6.00 | – | – | – | – | –
4 | Cc1cc(NC(=O)C(=O)N2C[C@@H](C)CC[C@@H]2c2ccc3c[nH]nc3c2)cnc1N (stereo in doubt) [Compound 636, N-(6-amino-5-methyl-3-pyridyl)-2-[(2R,5S)-2-(1H-indazol-6-yl)-5-methyl-1-piperidyl]-2-oxo-acetamide] | – | – | – | – | – | – | – | pIC50 [1, 10]: > 7.00; MTAP intact/deleted ratio [1]: A (an IC50 ratio greater than or equal to 10 fold); pIC50 [2, 11]: > 6.00; pIC50 [3, 12]: 6.00 to 7.00
5 | Cc1cncc(NC(=O)C(=O)N2[C@@H](c3ccccc3)CC[C@H](C)[C@H]2C)c1 (single isomer, unassigned) [Compound 32] | < 6.00 | < 5.00 | < 6.00 | – | – | – | – | –
6 | [2H][C@]1(c2ccc(F)cc2)CC[C@H](C)CN1C(=O)C(=O)Nc1cnc(N)c(C)c1 (racemic) [Compound 1009, N-(6-amino-5-methylpyridin-3-yl)-2-(2-(4-fluorophenyl)-5-methylpiperidin-1-yl-2-d)-2-oxoacetamide hydrochloride] | > 7.00 | 5.00 to 6.00 | 6.00 to 7.00 | – | – | – | – | –
7 | Cc1cc(NC(=O)C(=O)N2C[C@@H](C)CC[C@@H]2c2ccc(F)cc2)cnc1N (single isomer, unassigned) [Compound 242] | > 7.00 | > 6.00 | 6.00 to 7.00 | – | – | – | – | –
8 | Cc1cc(NC(=O)C(=O)N2CC(C)CCC2c2ccccc2)cnc1N (mixture of isomers) [Compound 27, N-(6-Amino-5-methyl-3-pyridyl)-2-(5-methyl-2-phenyl-1-piperidyl)-2-oxo-acetamide] | > 7.00 | 5.00 to 6.00 | < 6.00 | – | – | – | – | –
9 | Cc1cc(NC(=O)C(=O)N2C[C@@H](C)CC[C@@H]2c2ccncc2)cnc1N (single isomer, unassigned) [Compound 609] | – | – | – | < 6.30 | < 6.30 | < 6.30 | – | pIC50 [1, 10]: < 6.00; MTAP intact/deleted ratio [1]: C (an IC50 ratio of less than 3 fold); pIC50 [2, 11]: < 5.00
10 | Cc1cc(NC(=O)C(=O)N2C[C@@H](C)CC[C@@H]2c2ccccc2)cnc1N (single isomer, unassigned) [Compound 33] | > 7.00 | 5.00 to 6.00 | 6.00 to 7.00 | – | – | – | – | –
11 | C[C@H]1CC[C@H](c2ccc3c(c2)CC(=O)N3)N(C(=O)C(=O)Nc2cncc(C(N)=O)c2)C1 (single isomer, unassigned) [Compound 319] | > 7.00 | 5.00 to 6.00 | 6.00 to 7.00 | – | – | – | – | –
12 | Cc1cncc(NC(=O)C(=O)N2CC(C)CCC2c2ccccc2)c1 (stereo not shown) [Compound 1, 2-(5-methyl-2-phenylpiperidin-1-yl)-N-(5-methylpyridin-3-yl)-2-oxoacetamide] | < 6.00 | – | < 6.00 | – | – | – | – | –
13 | C[C@@H]1CC[C@H](c2ccccc2)N(C(=O)C(=O)Nc2cncc(C(N)=O)c2)C1 (single isomer, unassigned) [Compound 75] | < 6.00 | – | < 6.00 | – | – | – | – | –
14 | C[C@@H]1CC[C@@H](c2ccc3c(c2)CC(=O)N3)N(C(=O)C(=O)Nc2cncc(C(N)=O)c2)C1 (single isomer, unassigned) [Compound 325] | < 6.00 | – | < 6.00 | – | – | – | – | –
15 | Cc1cc(NC(=O)C(=O)N2C[C@H](C)CC[C@@H]2c2ccc(-c3ccn[nH]3)s2)cnc1N (racemic) [Compound 577, N-(6-amino-5-methyl-3-pyridyl)-2-[(2R,5R)-5-methyl-2-[5-(1H-pyrazol-5-yl)-2-thienyl]-1-piperidyl]-2-oxo-acetamide] | – | – | – | – | – | – | – | pIC50 [1, 10]: < 6.00; MTAP intact/deleted ratio [1]: B (an IC50 ratio greater than or equal to 3 fold but lower than 10 fold); pIC50 [3, 12]: < 6.00
16 | Cc1cc(NC(=O)C(=O)N2C[C@@H](C)[C@@H](C)C[C@H]2c2ccccc2)cnc1N (single isomer, unassigned) [Compound 304] | – | – | – | 6.30 to 7.30 | 6.30 to 7.30 | 6.30 to 7.30 | < 5.00 | –
17 | Cc1cc(NC(=O)C(=O)N2C[C@@H](C)CC[C@@H]2c2ccc3cc[nH]c(=O)c3c2)cnc1N (single isomer, unassigned) [Compound 1021] | – | – | – | < 6.30 | < 6.30 | < 6.30 | < 5.00 | –
18 | COc1ncc(NC(=O)C(=O)N2C[C@@H](C)CC[C@@H]2c2ccc3c(c2)CCC(=O)N3)cc1C(N)=O (single isomer, unassigned) [Compound 673] | – | – | – | < 6.30 | < 6.30 | < 6.30 | – | pIC50 [2, 11]: < 5.00
19 | Cc1cc(NC(=O)C(=O)N2C[C@@H]3CC[C@@H](C3)[C@@H]2c2ccccc2)cnc1N (single isomer, unassigned) [Compound 62] | – | – | – | – | 6.30 to 7.30 | < 6.30 | < 5.00 | pIC50 [4, 14]: < 6.30
20 | CNS(=O)(=O)c1ccc([C@@H]2CC[C@@H](C)CN2C(=O)C(=O)Nc2cncc(C(N)=O)c2)cc1 (single isomer, unassigned) [Compound 723] | – | – | – | < 6.30 | < 6.30 | < 6.30 | – | pIC50 [2, 15]: < 5.00
21 | Cc1cc(NC(=O)C(=O)N2C[C@H](C)CC[C@H]2c2ccc3c(cnn3C)c2)cnc1N (racemic) [Compound 922] | – | – | – | 6.30 to 7.30 | > 7.30 | 6.30 to 7.30 | > 6.00 | –
22 | CC(=O)N[C@H]1CC[C@H]([C@H]2CC[C@H](C)CN2C(=O)C(=O)Nc2cnc(N)c(C)c2)CC1 (single isomer, unassigned) [Compound 296] | – | – | – | < 6.30 | 6.30 to 7.30 | < 6.30 | < 5.00 | –
23 | COc1ncc(NC(=O)C(=O)N2C[C@@H](C)CC[C@@H]2C2CCCC2)cc1C(N)=O (single isomer, unassigned) [Compound 298] | – | – | – | < 6.30 | < 6.30 | < 6.30 | < 5.00 | –
24 | Cc1cc(NC(=O)C(=O)N2C[C@H](C)CC[C@H]2c2cc(F)cc(F)c2)cnc1N (single isomer, unassigned) [Compound 712, N-(6-amino-5-methylpyridin-3-yl)-2-(2-(3,5-difluorophenyl)-5-methylpiperidin-1-yl)-2-oxoacetamide] | – | – | – | < 6.30 | < 6.30 | < 6.30 | – | pIC50 [2, 15]: < 5.00
25 | COc1ncc(NC(=O)C(=O)N2C[C@H](C)CC[C@@H]2C2CCCC2)cc1C(N)=O (single isomer, unassigned) [Compound 312] | – | – | – | < 6.30 | 6.30 to 7.30 | 6.30 to 7.30 | < 5.00 | –
26 | CCc1cc(NC(=O)C(=O)N2C[C@@H](C)CC[C@@H]2c2ccc3sc(N)nc3c2)cnc1N (single isomer, unassigned) [Compound 996] | – | – | – | > 7.30 | > 7.30 | 6.30 to 7.30 | > 6.00 | –
27 | CC(=O)NCc1ccc([C@@H]2CC[C@@H](C)CN2C(=O)C(=O)Nc2cnc(N)c(C)c2)cc1 (racemic) [Compound 1036, rac-2-[(2R,5S)-2-[4-(Acetamidomethyl)phenyl]-5-methyl-1-piperidyl]-N-(6-amino-5-methyl-3-pyridyl)-2-oxo-acetamide] | – | – | – | 6.30 to 7.30 | 6.30 to 7.30 | 6.30 to 7.30 | 5.00 to 6.00 | –
28 | Cc1cc(NC(=O)C(=O)N2C[C@@H](C)CC[C@@H]2c2cc(F)cc(Cl)c2)cnc1N (single isomer, unassigned) [Compound 682] | – | – | – | < 6.30 | 6.30 to 7.30 | < 6.30 | – | pIC50 [2, 11]: < 5.00
29 | Cn1nccc1C1CCCCN1C(=O)C(=O)Nc1cncc(C(N)=O)c1 (single isomer, unassigned) [Compound 59] | – | – | – | – | 6.30 to 7.30 | < 6.30 | < 5.00 | pIC50 [4, 14]: < 6.30
30 | Cc1cc(NC(=O)C(=O)N2C[C@H](C)CC[C@H]2c2cc(Cl)cc(C(F)(F)F)c2)cnc1N (single isomer, unassigned) [Compound 679] | – | – | – | < 6.30 | 6.30 to 7.30 | < 6.30 | – | pIC50 [2, 11]: < 5.00

From US11999727B2 (Tango Therapeutics, Inc., priority 2020, dated 2024)
